# Test results published in patent US20140186872A1, “BISACODYL AND ITS ANALOGUES AS DRUGS FOR USE IN THE TREATMENT OF CANCER” (CENTRE NATIONAL DE LA RECHERCHE SCIENTIFIQUE- CNRS, priority 2011, published 2014).
# Where a name gives a salt, the structure may show the parent alone.
# Key:
# [1] = system: proliferating TG1 glioblastoma stem cells; assay: ATP-Glo (Cell Titer Glo) cell viability, dose/response, proliferating TG1 cells; assay type: cell-based, human; details: for EC50: Homo sapiens, Glioblastoma stem cell, TG1-A P, experimental protocol of Example 12, ATP-Glo; for EC50 / effect on survival of proliferating TG1 cells: 24 h; for effect on survival of proliferating TG1 cells: own culture medium
# Protocol: The TG1 proliferating cells correspond to cells for which medium is renewed regularly, twice weekly.
# The proliferating cells were put back in 1 mL of fresh NS34 medium, dissociated mechanically by pipetting up and down 100 times with a P1000 micropipette preset to 400 μl and counted with Trypan Blue, after dilution in fresh NS34 medium, to obtain a final suspension of 6×10^5 cells/mL.
# (§1) 50 μl of solution containing cells was deposited per well in a 96-well plate (Greiner #655090).
# (§2) The test compounds, in solution of 100% of DMSO were diluted in culture medium: in the absence of DMSO (medium 0% DMSO) or in the presence of 2% of DMSO (medium 2% DMSO) at concentrations of 200 μM, 100 μM, 80 μM, 60 μM, 40 μM, 20 μM, 10 μM and 2 μM. For all these dilutions the final concentration in DMSO was 2% (see Table 1 below; volumes shown make it possible to construct dose/response curves, in triplicate, for 1 compound on a 96-well plate—FIG. 1)
# 50 μL of solution of compound was added at the concentrations specified above to 50 μL of cells in the plate (FIG. 1) (Final concentration of compounds in contact with the cells: 100 μM, 50 μM, 40 μM, 30 μM, 20 μM, 10 μM, 5 μM, 1 μM (in 1% of final DMSO). Final concentration of positive control: 50 μM in 1% of final DMSO. Final concentration of negative control: 1% final DMSO). […]
# (§3) The test of cell viability was carried out using the Cell Titer Glo kit (Promega #G7571). After thawing of the Cell Titer Glo reagent (1 Buffer vial+1 Substrate vial per plate) protected from the light, the contents of the Buffer vial were transferred to the Substrate vial. 100 μl of Cell Titer Glo reagent was deposited on the cells treated with the compounds.
# (§4) The results, which were given for each well in strokes per second (sps), were converted to percentage cell survival relative to the control 1% of DMSO, which was fixed at 100%.
# (§5) The EC50 was determined as the concentration that gives 50% of the response.
# (§6) Glioblastoma (WHO grade IV glioma) stem cells (TG1, TG16 and OB1) were derived from tumor samples of 3 patients at Sainte Anne Hospital (Paris, France), as previously described (48) and expanded as neurosphere cultures. In continuously proliferating cultures, neurospheres were mechanically dissociated into a single-cell suspension twice a week with 90% renewal of their culture medium. Quiescent glioblastoma stem cells were obtained by non-renewal of the culture medium for 9-16 days following cell seeding. The non-proliferating state was assessed by decreased ability of the cells to incorporate EdU (5-ethynyl-2′-deoxyuridine) using the Click-iT™ EdU Flow Cytometry Assay Kit (Invitrogen, France) according to the manufacturer's instructions. […]
# (§7) Confirmed hit compounds from the primary and secondary screens were purchased from Prestwick Chemical and dissolved in DMSO to obtain 10 mM concentrated stock solutions. Hit compound validation was obtained through dose-response curves on the viability of TG1 glioblastoma stem cells under the same experimental conditions (cell density, treatment duration) as described for the primary and secondary screens. Each compound was tested in triplicate in at least three independent experiments on proliferating and quiescent glioblastoma stem TG1 cells.
# (§8) The EC50 value was determined for each compound by fitting the data points according to the following equation: […]
# (§9) where y represents the expected response (expressed as a percentage of cell viability), x is the chemical compound concentration, Smax and Smin are the maximum and minimum viability responses recorded, respectively, and n is the Hill coefficient. Curve fitting was performed using the Microsoft Excel Solver component.
# [2] = system: quiescent TG1 glioblastoma stem cells; assay: ATP-Glo (Cell Titer Glo) cell viability, dose/response, quiescent TG1 cells; assay type: cell-based, human; details: 24 h; for EC50: Homo sapiens, Glioblastoma stem cell, TG1-A Q, experimental protocol of Example 12, ATP-Glo, read-out: EC50 Quiescent TG1; for effect on survival of quiescent TG1 cells (words): own conditioned medium
# Protocol: The TG1 cells were put into quiescence by keeping the cells in culture without changing the medium from 9 to 16 days. The state of quiescence was verified by non-incorporation of nucleotides into the DNA of the cells (see example 9).
# The quiescent cells were put back in 1 mL of conditioned medium, dissociated mechanically by pipetting up and down 100 times with a P1000 micropipette preset to 400 μl and counted with Trypan Blue, after dilution in conditioned medium, to obtain a final suspension of 8.10^5 cells/mL.
# as §1, §2
# 50 μL of solution of compound was added at the concentrations specified above to 50 μL of cells in the plate (FIG. 1) (Final concentration of compounds in contact with the cells: 100 μM, 50 μM, 40 μM, 30 μM, 20 μM, 10 μM, 5 μM, 1 μM (in 1% of final DMSO). Final concentration of positive control: 50 μM in 1% of final DMSO. Final concentration of negative control: 1% final DMSO).
# The cells were incubated for 23 to 24 hours at 37° C. in an incubator in the presence of 5% CO2 (under humid atmosphere at 95% provided by a reservoir filled with distilled water).
# as §3, §4, §5, §6, §7, §8, §9
# [3] = system: human fetal neural stem cells (f-NSC cells); assay: ATP-Glo cell viability on fetal neural stem cells; assay type: cell-based
EC50 [1] [µM],EC50 [2] [µM],Compound,also measured
> 100,4 ± 1.4,Oc1ccc(C(c2ccc(Cl)cc2)c2ccccn2)cc1 (stereo not shown),
,,"COc1ccc(C(c2ccc(OC(C)=O)cc2)c2ccccn2)cc1 (stereo not shown) [Compound 7, 4-((4-Methoxyphenyl)(pyridin-2-yl)methyl)phenyl acetate]","effect on survival / toxicity, f-NSC cells [3]: little or no effect; effect on survival of quiescent TG1 cells (words) [2]: effect similar to that described for bisacodyl"
25 ± 4,22 ± 3,CCCCCCCCCOc1ccc(C(c2ccc(O)cc2)c2ccccn2)cc1 (stereo not shown),
> 100,57.6 ± 0.7,Oc1ccc(C(c2ccccn2)c2ccccc2O)cc1 (stereo not shown),
> 100,8 ± 6,COc1ccc(C(c2ccc(O)cc2)c2ccccn2)cc1 (stereo not shown),
55 ± 8,40 ± 10,CCCC(C)Oc1ccc(C(c2ccc(O)cc2)c2ccccn2)cc1 (stereo not shown),
> 100,5,Oc1ccc(C(c2ccc(O)cc2)c2cncc(Br)c2)cc1,
25.5 ± 0.6,22 ± 2,CCCCCCCCCOc1ccc(C(c2ccc(OC(C)=O)cc2)c2ccccn2)cc1 (stereo not shown),
> 100,1 ± 0.5,Oc1ccc(C(c2ccc(O)cc2)c2ccccn2)cc1 [drawing 52],
> 100,17.3,Oc1ccc(C(c2ccc(C(F)(F)F)cc2)c2ccccn2)cc1 (stereo not shown),
,,"O=C(Oc1ccc(C(c2ccc(OC(=O)C(F)(F)F)cc2)c2ccccn2)cc1)C(F)(F)F [Compound 5, (Pyridin-2-ylmethylene)bis(4,1-phenylene)bis(2,2,2-trifluoroacetate)]","effect on survival / toxicity, f-NSC cells [3]: little or no effect; effect on survival of quiescent TG1 cells (words) [2]: effect similar to that described for bisacodyl"
39 ± 6,3 ± 1,C#CCOc1ccc(C(c2ccc(O)cc2)c2ccccn2)cc1 (stereo not shown),
> 100,17.1 ± 6.3,Oc1ccc(C(c2ccccc2)c2ccccn2)cc1 (stereo not shown),
> 100,2 ± 1,O=C(Oc1ccc(C(c2ccc(OC(=O)C(F)(F)F)cc2)c2ccccn2)cc1)C(F)(F)F [drawing 57],
,,"C#CCOc1ccc(C(c2ccc(O)cc2)c2ccccn2)cc1 (racemic) [Compound 9, 4-((4-(Prop-2-yn-1-yloxy)phenyl)(pyridin-2-yl)methyl)phenol]",effect on survival of proliferating TG1 cells [1]: also on the proliferating cells; concentrations causing a considerable decrease in survival of proliferating cells ([1]; proliferating TG1 cells): above 40 μM; concentration from which a large decrease in survival of NSC cells occurs [3]: ≥ 40 µM; effect on survival of quiescent TG1 cells (words) [2]: active on the quiescent cells
> 100,1.6 ± 0.3,CC(=O)Oc1ccc(C(c2ccc(OC(C)=O)cc2)c2ccccn2)cc1 [drawing 51],
,,"OCCN1CCN(CC/C=C2/c3ccccc3Sc3ccc(Cl)cc32)CC1 [Zuclopenthixol HCl, reference compound]",effect on survival of proliferating TG1 cells [1]: more selective effects
60.8 ± 10.4,14.2 ± 8.8,Oc1ccc(C(c2ccccc2)c2ccc(O)cc2)cc1,
> 100,32 ± 2,Nc1ncccc1C(c1ccc(O)cc1)c1ccc(O)cc1,
,,"COc1ccc(C(c2ccc(O)cc2)c2ccccn2)cc1 (racemic) [Compound 6, 4-((4-Methoxyphenyl)(pyridin-2-yl)methyl)phenol]","effect on survival / toxicity, f-NSC cells [3]: little or no effect; effect on survival of quiescent TG1 cells (words) [2]: effect similar to that described for bisacodyl"
> 100,1 ± 0.5,CC(=O)Oc1ccc(C(c2ccc(O)cc2)c2ccccn2)cc1 (stereo not shown),
,,"CCCCCCCCNC(C)C(O)c1ccc(SC(C)C)cc1 (stereo not shown) [Suloctidil, reference compound]",effect on survival of proliferating TG1 cells [1]: overlapping cytotoxic activity; effect on survival of quiescent TG1 cells (words) [2]: overlapping cytotoxic activity
> 100,8 ± 3,Oc1ccc(C(c2ccc(O)cc2)c2cccnc2)cc1,
> 100,39 ± 2,Oc1ccc(C(c2ccncc2)c2ccc(O)cc2)cc1,
,,"CC(=O)Oc1ccc(C(c2ccc(O)cc2)c2ccccn2)cc1 (racemic) [Compound 3, 4-((4-Hydroxyphenyl)(pyridin-2-yl)methyl)phenyl acetate]","effect on survival / toxicity, f-NSC cells [3]: little or no effect; effect on survival of quiescent TG1 cells (words) [2]: effect similar to that described for bisacodyl"
> 100,9 ± 4,COc1ccc(C(c2ccc(OC(C)=O)cc2)c2ccccn2)cc1 (stereo not shown) [drawing 60],

Compound,EC50 [1] [µM],EC50 [2] [µM],also measured
CC(=O)Oc1ccc(C(c2ccc(O[Si](C)(C)C(C)(C)C)cc2)c2ccccn2)cc1 (stereo not shown),12 ± 0.1,12.1 ± 0.6,
CC(C)(C)[Si](C)(C)Oc1ccc(C(c2ccc(O)cc2)c2ccccn2)cc1 (stereo not shown),13 ± 5,13 ± 3,
Clc1ccc(C(c2ccc(Cl)cc2)c2ccccn2)cc1,34 ± 3,35.5 ± 4.5,
c1ccc(C(c2ccccc2)c2ccccn2)cc1,> 100,81.9,
